Assay results reported in patent US6331555A, “Treatment of platelet derived growth factor related disorders such as cancers” (priority 1999, dated 2001).
Like-named read-outs stand apart in the source and are kept apart here.

Legend:
Solubility = conditions: water
Excerpt: PBTE consists of a solution of 3% w/v benzyl alcohol, 8% w/v polysorbate 80, and 65% w/v polyethylene glycol (MW=300 daltons) in absolute ethanol. PBTE:D5W consists of PBTE diluted 1:1 in a solution of 5% dextrose in water. […] The solubility of the other compounds described herein can be obtained using standard techniques.

in vivo = test: in vivo; set-up: species or system rat; conditions: IP A10 80 mg/kg single dose
Description: (§1) Plasma was prepared and frozen in liquid nitrogen. Tissues and organs were resected and immediately frozen in liquid nitrogen. After the addition of an internal standard, plasma samples were acidified with HCl and extracted with acetonitrile. The acetonitrile fraction was evaporated to dryness in a vacuum centrifuge with heating and redissolved in methanol. Tissue and organ samples were homogenized according to the weight ratio of 1:5 (w:v) in 50 mM Tris-HCl, pH 7.4, at 20,000 rev/min, using a tissue homogenizer (Brinkmann Polytron Model PT3000). After the addition of an internal standard, the homogenate was acidified with HCl and then extracted with acetonitrile. The acetonitrile fraction was then extracted with an equal volume of diethyl ether. The ether fraction was evaporated to dryness in a vacuum centrifuge with heating and redissolved in methanol.
(§2) Samples for HPLC analysis were injected onto a Hewlett Packard Hypersil 5-μm C18 cartridge column (100×4.6 mm). The mobile phase was methanol:35 mM KH2 PO4 (pH 4.5) 55:45 containing 4 mM triethylamine. The flow rate was 1.2 mL/min. The compounds were monitored by UV absorption at 254 nm using a Hewlett-Packard diode-array detector (HP Model 1090). Plasma and tissue concentrations were determined from standard curves using peak area for quantitation. […] The internal standard used was 5-methyl-pyrazole-4-carboxylic acid-(4-trifluoromethyl)-anilide.
(§3) Table XXII. […] Plasma and brain samples were prepared and analyzed by HPLC as described in Appendix 6. All results were calculated by the method of internal standardization. NT= not tested, ND= not detected.

C6 glioma cells = test: C6 glioma SC xenograft in mice; format: in vivo
Description: Cell lines were grown in appropriate medium (see Appendix 1). Cells were harvested at or near confluency with 0.05% Trypsin-EDTA and pelleted at 450×g for 10 min. Pellets were resuspended in sterile PBS or media (without FBS) to a particular concentration and the cells were implanted into the hindflank of mice. Tumor growth was measured over 3 to 6 weeks using venier calipers. Tumor volumes were calculated as a product of length×width×height unless otherwise indicated. P values were calculated using the Students' t-test.
C6 and SKOV-3(T) cells were grown in culture, as described in "cell growth" above, and implanted into the hind flank of a female Balb/c nu/nu mouse at 3×10^6 cells (for C6 experiments), or 1×10^7 cells (for SKOV-3 experiments) in […] of PBS on Day 0. U87MG, U118MG or U373MG human glioblastoma cells (obtained from the ATCC), or A4312 were also implanted into athymic mice. […] Tumors were measured using venier calipers and tumor volume was calculated as a product of tumor length, width, and height.

T98G cells = test: PDGF-stimulated DNA synthesis, T98G cells (3H-thymidine); format: cell-based, human
Description: T98G cells in log phase growth were transferred to 96-well dishes at 20,000 cells in 200 μL of serum-containing growth medium. After an overnight attachment period, the monolayers were washed twice with 200 μL MCDB 105 medium and the cells were cultured in 200 μL serum-free MCDB 105 medium for 24 hr. […] The plates were incubated at 37° C. at ambient CO2 for approximately 18 hr. ^3 H-thymidine (Amersham, 5 Ci/mmol) was added to each well to yield a final concentration of 5 μCi/mL and the plates were returned to 37° C. incubator. After 4 hr the medium was removed, the plates were put onto ice, and washed twice with 200 μL ice-cold PBS per well. Radioactivity incorporated into DNA was separated from unincorporated ^3 H-thymidine by precipitation with 100 μL ice-cold TCA for 10 min on ice. […] Six mL of cocktail (Ready Safe, Beckman) was added and radioactivity quantified in a Beckman liquid scintillation counter model LS6000SC. […]
The effect on basal ^3 H-thymidine incorporation was determined in the absence of PDGF. […] Radioactivity incorporated into DNA was separated from unincorporated ^3 H-thymidine by precipitation with […] ice-cold TCA for 10 minutes. […] Six ml of cocktail (Ready Safe, Beckman) was added and radioactivity quantified in a Beckman liquid scintillation counter model LS6000 SC.

[1] = Description: as §1, §2, §3
[2] = test system: NIH3T3 cells overexpressing the human PDGF-b receptor; test: PDGF-stimulated cell cycle progression, flow cytometry; format: cell-based, mouse
Description: NIH3T3 mouse fibroblasts overexpressing the human PDGF-β receptor were seeded in DMEM supplemented with 10% CS and 2 mM GLN. Cells were grown to about 80% confluence and then treated overnight in serum-free medium (DMEM, 2 mM GLN, 2 mM NEAA, 2 mM NaPyr, and 2 mM HEPES). […] Cells were then collected, strained and analyzed by flow cytometry for DNA content.
The percentage of cells in the S phase of the cell cycle was determined by flow cytometry.
The cells were analyzed for DNA content by flow cytometry.

[3] = format: in vivo, mouse; conditions: IP A10 40 mg/kg single dose
Description: as §1
Samples for HPLC analysis were injected onto a Hewlett Packard Hypersil 5-μm C18 cartridge column (100×4.6 mm). […] The compounds were monitored by UV absorption at 254 nm using a Hewlett-Packard diode-array detector (HP Model 1090). Plasma and tissue concentrations were determined from standard curves using peak area for quantitation. […]
as §3

tumor cell lines = test: In vitro growth assays, tumor cell lines; format: cell-based
Description: The assay measures protein content of acid-fixed cells using the counterion binding dye sulforhodamine B (SRB, Sigma). […] For other cell lines, the cells (2000 cells/well in 100 μL) were introduced into wells immediately after dispensing the drug solutions. After 4 days (37° C., 5% CO2) the monolayers were washed 3 times with PBS and fixed with 200 μL ice-cold 10% TCA (Fisher Scientific), and kept at 4° C. for 60 min. The TCA was removed and the fixed monolayers were washed 5 times with tap water and allowed to dry completely at room temperature on absorbent paper. The cellular protein was stained for 10 min with 100 μL 0.4% SRB dissolved in 1% acetic acid. After 5 washes with tap water, the dye was solubilized in 10 mM Tris base (100 μL per well) and absorbance read at 570 nm on a Dynatech plate reader model MR5000. Growth inhibition data are expressed as a percentage of absorbance detected in control wells which were treated with 0.4% DMSO alone. DMSO controls were not different from cells grown in regular growth medium. IC50 values were determined using a four parameter curve fit function.
For K562, DlB, L1210, 7TDl, T27A, and Colo320 DM cells, an MTT assay was used to assess cell growth. […] The absorbance was determined at 570 nm wavelength with a reference wavelength of 630 nm using an ELISA plate reader.

solubility in water (Solubility): not very soluble in water
time detected in plasma (in vivo): greater than 24 hr
brain level, athymic mice compared to Wistar rats ([1]; 2 hr post-dose): 11 times
brain level, athymic mice compared to Wistar rats ([1]; 4 hr post-dose): 6.5 times
% Increase, multiple vs single dose ([1]; A10 20 mg/kg): 64%
% Increase, multiple vs single dose ([1]; A10 40 mg/kg): 69%
time detected in plasma ([1]; IP A10 40 mg/kg single dose): more than 48 hr
time detected in plasma ([1]; IP A10 […] mg/kg four weekly treatments, after last dose): 48 h
time detected in plasma ([1]; IP A10 […] mg/kg single dose): more than 48 hr
time detected in plasma [3]: more than 48 hr
SMILES: CC(O)=C(C#N)C(=O)Nc1ccc(C(F)(F)F)cc1 [Compound B11, 2-cyano-3-hydroxy-N-[4-(trifluoromethyl)phenyl]-2-butenamide]
inhibition of tumor growth compared with A10 (C6 glioma cells; B11 15 mg/kg/day (DMSO) vs A10 15 mg/kg/day (DMSO)): to the same extent
potency compared to A10, growth of C6 tumors in vivo (C6 glioma cells; rat, in vivo): equipotent in the inhibition of the growth of C6 tumors in vivo
potency compared to A10, PDGF-stimulated DNA synthesis (T98G cells): equipotent in inhibiting PDGF-stimulated DNA synthesis
potency compared to A10, PDGF-stimulated cell cycle progression [2]: equipotent
potency compared to A10, in vitro growth assays (tumor cell lines): equipotent to A10
